Patent US7544373B2, “Minocycline oral dosage forms for the treatment of acne” (Medicis Pharmaceutical Corporation, priority 2007, dated 2009)

Assay: Repeat-dose primate toxicology studies
Format: in vivo

SMILES: CN(C)c1ccc(O)c2c1C[C@H]1C[C@H]3[C@H](N(C)C)C(O)=C(C(N)=O)C(=O)[C@@]3(O)C(O)=C1C2=O [minocycline]
- lowest exposure which yields adverse effects (4 weeks): ~15 µg/mL
- lowest exposure which yields adverse effects (13 weeks): ~7 µg/mL
